# US11597737B2, “Small molecule inhibitors selective for polo-like kinase proteins” (UNIVERSITY OF SOUTH CAROLINA, priority 2016, dated 2023)
# Where two headings read alike, the source gives them in different places.
# Tests used:
# [1] = system: mutant (C67V) PLK1 RPE cells; experiment: Cell viability assay, PLK1 C67V mutant RPE cells; format: cell-based; conditions: FIG. 6-8
# Description: (§1) Retinal Pigment Epithelial (RPE) cells were maintained in 1:1 DMEM/Hams F-12 (Invitrogen™, Carlsebad, Calif.; Corning® Cellgro, Manassas, Va.), and supplemented with 10% FBS or Corning® Nu-Serum™ (BD™ Biosciences, Franklin Lakes, N.J.) and 1% penicillin/streptomycin (Invitrogen™) in a humidified incubator and 5% C02 at 37° C.
# (§2) Exponentially growing cells were plated in 96-well dishes. Dose response curves were used to treat cells for 72 hours with inhibitors. Following the three-day treatment, cell viability was measured using the MTT (3-(4,5-dimethylthiazol-2-yl)-2,5-diphenyltetrazolium bromide) colorimetric assay. Cells were incubated for 3 hours with MTT allowing viable cells to metabolize the tetrazolium dye to a purple colored solution.
# PC3 cells = experiment: Cell cycle analysis and BrdU pulse labeling in PC3 cells, FIG. 9-11; format: cell-based; conditions: for cell cycle phenotype (in words): 15 μM
# Description: Analysis of Cell Cycle Progression by FACS
# Serum-Starved Synchronization
# Cells were synchronized in G1 by serum starvation. Briefly, exponentially growing cells were plated overnight. Media (DMEM, 10% FBS, 1% Pen. Strep.) was then removed and replaced with media containing no FBS. Cells were starved for 72 hours then treated for 24 hours with inhibitor. Following treatment, cells were harvested and processed for endpoint experimental analysis.
# Ethanol fixative was removed by centrifugation and the cells were washed with 1 mL ice-cold PBS/1% BSA. Cells were denatured by resuspending in 0.2 mg/mL pepsin in 2N HCl and incubated in 37° C. water bath for 15 minutes. Hydrolysis was then terminated by adding 1 M Invitrogen™ Novex® Tris-Glycine. Cells were then washed with PBS/1% BSA then the primary anti-BrdU antibody (1:100 dilution in TBFP; 0.5% Tween-20, 1% BSA, 1% FBS, PBS) was added and cells were incubated for 25 minutes in the dark, at room temperature. […] Cells were washed once more with PBS/1% BSA and re-suspended in DAPI for 30 minutes before being analyzed by flow cytometry.
# The PLK1 PBD-inhibitors were analyzed further by cell cycle analysis in PC3 cells (FIG. 9). […] To quantify the percentage of cells actively proliferating (synthesizing their DNA) or arrested Bromodeoxyuridine (BrdU) pulse labeling was carried out and analyzed by flow cytometry.
# PLK1 PBD (367-603) = target: T1, PLK1 PBD (367-603) (Homo sapiens, UniProt P53350); experiment: Fluorescence polarization assay, PLK1 PBD; format: binding
# T1 construct: PLK1 PBD (367-603); purchased BPS Biosciences Inc. (San Diego, Calif.)
# T1 sequence (P53350 367-603): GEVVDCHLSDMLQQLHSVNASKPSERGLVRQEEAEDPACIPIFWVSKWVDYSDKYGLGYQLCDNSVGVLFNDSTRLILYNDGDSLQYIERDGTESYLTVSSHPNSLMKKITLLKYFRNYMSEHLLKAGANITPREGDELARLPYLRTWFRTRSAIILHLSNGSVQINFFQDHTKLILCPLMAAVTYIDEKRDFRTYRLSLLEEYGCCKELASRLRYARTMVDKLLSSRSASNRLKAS
# Description: (§3) Fluorescence Polarization Assay
# (§4) Materials were dissolved in DMSO (10 mM) and diluted from 10 nM to 600 μM (maximum of 6% DMSO tolerance in the assay). […] Incubation was carried out at room temperature for 45 minutes. Fluorescence was measured using a DTX 880 plate reader and Multimode Analysis software (Beckman Coulter, Brea, Calif.). […] Each data point was performed in triplicate for every experiment, and experiments were performed at least three times. An IC50 value for each compound was calculated from linear regression analysis of the plots.
# PLK3 PBD (335-646) = target: T2, PLK3 PBD (335-646) (Homo sapiens, UniProt Q9H4B4); experiment: Fluorescence polarization assay, PLK3 PBD; conditions: PLK3 PBD binding
# T2 construct: PLK3 PBD (335-646); purchased BPS Biosciences Inc. (San Diego, Calif.)
# T2 sequence (Q9H4B4 335-646): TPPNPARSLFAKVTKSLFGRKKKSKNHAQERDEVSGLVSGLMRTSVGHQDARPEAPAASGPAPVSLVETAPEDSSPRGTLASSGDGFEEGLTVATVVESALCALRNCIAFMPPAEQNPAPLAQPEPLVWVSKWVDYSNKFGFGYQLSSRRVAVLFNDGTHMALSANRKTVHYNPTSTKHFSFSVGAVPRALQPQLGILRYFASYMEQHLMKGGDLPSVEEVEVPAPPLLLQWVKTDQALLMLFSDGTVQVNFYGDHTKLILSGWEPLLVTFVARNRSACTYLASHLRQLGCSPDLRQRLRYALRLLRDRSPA
# Description: as §3, §4
# [2] = system: KRAS mutant lung cancer (A-549) cells; experiment: Cell viability assay (MTT), A-549; format: cell-based
# Description: A-549 lung cancer cells were maintained in Hams F-12 1× with glutamine (Corning® Cellgro, Manassas, Va.), and supplemented with 10% FBS or Corning® Nu-Serum™ (BD™ Biosciences, Franklin Lakes, N.J.) and 1% penicillin/streptomycin (Invitrogen™) in a humidified incubator and 5% C02 at 37° C.
# (§5) Exponentially growing cells were plated in 96-well dishes. Dose response curves were used to treat cells for 72 hours with inhibitors. Following the three-day treatment, cell viability was measured using the MTT (3-(4,5-dimethylthiazol-2-yl)-2,5-diphenyltetrazolium bromide) colorimetric assay. Cells were incubated for 3 hours with MTT allowing viable cells to metabolize the tetrazolium dye to a purple colored solution. Absorbance measurements (595 nm) were quantified using a DTX 880 plate reader and IC50 values were generated for FLIPs.
# [3] = system: WT Retinal Pigment Epithelial (RPE) cells; experiment: Cell viability assay, WT RPE cells; format: cell-based; conditions: FIG. 7, FIG. 8
# Description: as §1, §2
# [4] = system: HCT-116 (p53−/−) colon cancer cells; experiment: Cell viability assay (MTT), HCT116 p53-/-; format: cell-based
# Description: HCT-116 (p53+/+ and −/−) colon cancer cells were maintained DMEM (Invitrogen™, Carlsebad, Calif.) supplemented with 10% FBS or Nu-serum (BD™ Biosciences, Franklin Lakes, N.J.) and 1% penicillin/streptomycin (Invitrogen™) in a humidified incubator and 5% C02 at 37° C.
# as §5
# [5] = system: PTEN deficient prostate cancer (PC3) cells; experiment: Cell viability assay (MTT), PC3; format: cell-based; conditions: read-out: PCC-3
# Description: PC3 prostate cancer cells were maintained in DMEM (Invitrogen™, Carlsebad, Calif.) supplemented with 10% FBS or Corning® Nu-Serum™ (BD™ Biosciences, Franklin Lakes, N.J.) and 1% penicillin/streptomycin (Invitrogen™) in a humidified incubator and 5% C02 at 37° C.
# as §2
# [6] = Cell cycle analysis and caspase apoptosis assay; format: cell-based
# Description: Disclosed small molecule inhibitors can also encourage apoptosis.
# [7] = system: HeLa cervical cancer cells; experiment: Cell viability assay (MTT), HeLa; format: cell-based; conditions: read-out: HeLa
# Description: HeLa cervical cancer cells were obtained from ATCC (Manassas, Va.). […] Cells were maintained in DMEM (Invitrogen™, Carlsebad, Calif.) supplemented with 10% FBS or Corning© Nu-Serum™ (BD™ Biosciences, Franklin Lakes, N.J.) and 1% penicillin/streptomycin (Invitrogen™) in a humidified incubator and 5% CO2 at 37° C.
# as §2
# full length PLK1 = target: T3, full length PLK1 (Homo sapiens, UniProt P53350); experiment: PLK1 kinase inhibition assay (CycLex ELISA); format: biochemical; conditions: 7.5 μM ATP, read-out: PLK1 Kinase Inhibitory Act. IC50
# T3 construct: This ELISA assay measures the catalytic activity of full length PLK1 for a defined substrate
# T3 sequence (P53350 whole entry): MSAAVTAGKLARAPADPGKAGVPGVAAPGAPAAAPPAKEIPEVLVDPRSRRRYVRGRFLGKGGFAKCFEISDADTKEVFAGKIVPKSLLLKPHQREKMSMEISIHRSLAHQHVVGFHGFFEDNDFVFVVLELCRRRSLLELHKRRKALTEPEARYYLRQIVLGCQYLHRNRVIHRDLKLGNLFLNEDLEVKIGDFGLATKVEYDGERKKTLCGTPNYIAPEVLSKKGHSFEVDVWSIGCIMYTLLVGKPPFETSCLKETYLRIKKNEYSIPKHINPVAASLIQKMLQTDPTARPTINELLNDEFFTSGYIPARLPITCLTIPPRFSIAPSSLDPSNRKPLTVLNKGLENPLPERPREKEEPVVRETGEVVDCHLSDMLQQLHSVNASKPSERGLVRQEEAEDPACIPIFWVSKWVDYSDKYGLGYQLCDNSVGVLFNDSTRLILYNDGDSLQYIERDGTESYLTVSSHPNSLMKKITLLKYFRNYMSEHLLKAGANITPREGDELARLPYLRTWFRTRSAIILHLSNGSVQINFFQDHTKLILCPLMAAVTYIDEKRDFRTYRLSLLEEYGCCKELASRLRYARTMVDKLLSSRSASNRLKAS
# Description: PLK1 Kinase Inhibition Assay
# The CycLex® Polo-like Kinase 1 Assay/Inhibitor Screening Kit was used to measure catalytic inhibition (MBL Life Science, Nagano, Japan). This ELISA assay measures the catalytic activity of full length PLK1 for a defined substrate, which is detected by an anti-phospho-threonine antibody (PPT-07) and peroxidase coupled secondary antibody. […] Peroxidase catalyzes the conversion of the colorless solution to yellow, which was quantified using a DTX 880 plate reader. Absorbance measurements (450 nm) were plotted to calculate activity in each sample, and % inhibition was calculated in the wells relative to activity in the absence of inhibitor.
# [8] = PLK1 PBD binding, fluorescence polarization, read-out: PLK1 IC50
# [9] = Table 1, fluorescence polarization, read-out: PLK1 PBD IC50
structure (smiles),measurement,setting,value
"CC[C@@H]1C(=O)N(C)c2cnc(Nc3ccc(C(=O)NC4CCN(C)CC4)cc3OC)nc2N1C1CCCC1 [BI-2536, reference compound]",sensitivity of cells containing mutant (C67V) PLK1 (in words),[1],resistant
same,cells accumulate in G2/M,PC3 cells; concentration not given,~80%
CCCCc1ccc(C(=O)Nc2ccc(C(=O)O)cc2)cc1 [SCCP ID No. 5880],IC50,PLK1 PBD (367-603); [8],> 600 µM
same,binding to the PLK1 PBD (in words),PLK1 PBD (367-603); fluorescence polarization,did not bind
CCCCCCc1ccc(C(=O)Nc2ccccc2C(=O)O)cc1 [SCCP ID No. 5881],binding to the PLK1 PBD (in words),PLK1 PBD (367-603); fluorescence polarization,low micromolar activity
CCCCCCc1ccc(C(=O)Nc2cccc(C(=O)O)c2)cc1 [SCCP ID No. 5903],IC50,PLK3 PBD (335-646),43.6 ± 1.69 µM
same,IC50,PLK1 PBD (367-603); [8],130 ± 3.6 µM
same,Selectivity Fold Index,PLK1 PBD (367-603); fold selectivity for PLK1 versus PLK3 PBD,1.6
CCCCCCc1ccc(C(=O)Nc2ncccc2C(=O)O)cc1 [SCCP ID No. 5904],IC50,PLK1 PBD (367-603); [9],> 600 µM
CCCCCc1ccc(C(=O)Nc2ccccc2C(=O)O)cc1 [SCCP ID No. 5905],IC50,PLK1 PBD (367-603); [8],224 ± 4.88 µM
CCCCCCc1ccc(C(=O)Nc2cccc(S(N)(=O)=O)c2)cc1 [SCCP ID No. 5908],IC50,PLK1 PBD (367-603); [8],> 600 µM
same,binding to the PLK1 PBD (in words),PLK1 PBD (367-603); fluorescence polarization,No binding was observed
CCCCCCCCc1ccc(C(=O)Nc2ccccc2C(=O)O)cc1 [SCCP ID No. 5912],IC50,"[2]; Homo sapiens, A549, 72 hours",2.8 ± 0.1 µM
same,sensitivity of cells containing mutant (C67V) PLK1 (in words),[1],sensitive
same,cell cycle phenotype (in words),PC3 cells,S phase delay
same,sensitivity of cells containing wild type PLK1 (in words),[3],sensitive
same,PLK1 versus PLK3 specificity (in words),PLK1 PBD (367-603); PBD binding,relatively equipotent for PLK1 and PLK3 PBD binding
same,IC50,"[4]; Homo sapiens, HCT-116, 72 hours",8 ± 1.7 µM
CCCCCCCCc1ccc(C(=O)NCc2ccccc2C(=O)O)cc1 [SCCP ID No. 5913],IC50,PLK1 PBD (367-603); [9],105 µM
CCCCCCCCc1ccc(C(=O)Nc2ccccc2C(=O)OCC)cc1 [SCCP ID No. 5914],IC50,"[5]; Homo sapiens, PC-3, 72 h",> 100 µM
same,IC50,PLK1 PBD (367-603); [8],> 600 µM
same,levels of apoptosis (in words),[6],virtually none
same,IC50,"[7]; Homo sapiens, HeLa, 72 h",> 100 µM
CCCCCCc1ccc(C(=O)Nc2ccc(C)cc2C(=O)O)cc1 [SCCP ID No. 5924],IC50,PLK3 PBD (335-646),24.5 µM
same,IC50,PLK1 PBD (367-603); [8],> 600 µM
same,binding to the PLK1 PBD (in words),PLK1 PBD (367-603); fluorescence polarization,no binding to PLK1
CCCCCCCCc1ccc(C(=O)Nc2cccc(F)c2C(=O)O)cc1 [SCCP ID No. 5932],IC50,[2]; 72 hours,2.9 ± 0.5 µM
same,sensitivity of cells containing mutant (C67V) PLK1 (in words),[1],sensitive
same,IC50,"[5]; MTT, 72 hours",11.6 ± 1.2 µM
same,sensitivity of cells containing wild type PLK1 (in words),[3],sensitive
same,IC50,PLK1 PBD (367-603); [8],11.1 ± 1.1 µM
same,IC50,[4]; 72 hours,10 ± 2.4 µM
same,IC50,full length PLK1,48.9 µM
CCCCCCCCc1ccc(C(=O)Nc2ccc(OC)cc2C(=O)O)cc1 [SCCP ID No. 5935],cell cycle phenotype (in words),PC3 cells,G1 delay or arrest
same,IC50,PLK1 PBD (367-603); [8],5.89 ± 1.25 µM
CCCCCCCCc1ccc(C(=O)Nc2cc(F)cc(F)c2C(=O)O)cc1 [SCCP ID No. 5938],IC50,PLK1 PBD (367-603); [8],30.6 ± 3.2 µM
CCCCCCCCc1ccc(C(=O)Nc2cccc([N+](=O)[O-])c2C(=O)O)cc1 [SCCP ID No. 5939],IC50,PLK1 PBD (367-603); [8],6.05 ± 1.9 µM
CCCCCCc1ccc(C(=O)Nc2ccccc2OP(=O)(O)O)cc1 [SCCP ID No. 5940],IC50,PLK1 PBD (367-603); [8],> 600 µM
same,binding to the PLK1 PBD (in words),PLK1 PBD (367-603); fluorescence polarization,No binding was observed
CCCCCCc1ccc(C(=O)Nc2ccccc2O)cc1 [SCCP ID No. 5943],IC50,PLK1 PBD (367-603); [8],> 600 µM
same,binding to the PLK1 PBD (in words),PLK1 PBD (367-603); fluorescence polarization,No binding was observed
CCCCCCCCc1ccc(C(=O)Nc2cccc(C(F)(F)F)c2C(=O)O)cc1 [SCCP ID No. 5945],IC50,[2]; 72 hours,13.3 ± 0.8 µM
same,IC50,"[5]; MTT, 72 hours",27.9 ± 2.6 µM
same,IC50,[4]; 72 hours,24.9 ± 2 µM
same,IC50,"[7]; MTT, 72 hours",20.1 ± 3.1 µM
CCCCCCCCc1ccc(C(=O)Nc2cccc(O)c2C(=O)O)cc1 [SCCP ID No. 5946],IC50,"[5]; MTT, 72 hours",34.2 ± 2.5 µM
same,IC50,"[7]; MTT, 72 hours",33.6 ± 2.6 µM
CCCCCCCCc1ccc(CNc2ccccc2C(=O)O)cc1 [SCCP ID No. 5953],IC50,PLK1 PBD (367-603); [8],9.57 ± 2.03 µM
CCCCCCCCc1ccc(CNc2ccc(C)cc2C(=O)O)cc1 [SCCP ID No. 5961],IC50,PLK3 PBD (335-646),157 µM
same,IC50,PLK1 PBD (367-603); [8],> 600 µM
same,binding to the PLK1 PBD (in words),PLK1 PBD (367-603); fluorescence polarization,undetectable
CCCCCCCCc1ccc(C(=O)NCCC(=O)O)cc1 [SCCP ID No. 5975],IC50,PLK1 PBD (367-603); [9],> 200 µM
CCCCCCCCc1ccc(C(=O)NCC(C)C(=O)O)cc1 (centres unmarked) [SCCP ID No. 5976],IC50,PLK1 PBD (367-603); [9],343 to 450 µM
